Results from ChEMBL document CHEMBL6074715, “Discovery of pyridine-based derivatives as FLT3 inhibitors for the treatment of acute myeloid leukemia” (Eur J Med Chem, 2025).
Calls of active or inactive are those of the source. The calls are words filed in the database; no cut-off is given here.

How the values were obtained:
Homo sapiens [1] = organism: Homo sapiens; assay: Inhibition of human CDK1/cyclinB at 1 uM by Eurofins kinase assay
[2] = Volume of distribution in Sprague-Dawley rat at 5 mg/kg, iv measured upto 48 hrs by LC-MS/MS analysis; assay type: ADME, organism-based; settings: in vivo
[3] = target: T1, Vascular endothelial growth factor receptor 1 (Homo sapiens, UniProt P17948); assay: Inhibition of FLT (unknown origin) preincubated for 10 mins followed by addition of peptide solution by caliper mobility shift assay
[4] = target: Mitogen-activated protein kinase 1 (Homo sapiens) (UniProt P28482); assay: Inhibition of human MAPK1 at 1 uM by Eurofins kinase assay
MOLM-13 [5] = assay: Induction of cell cycle arrest in human MOLM-13 cells assessed as accumulation of cells at G1 phase at 1 uM measured after 48 hrs by PI staining based flow cytometry analysis (reference value: 42.8%); assay type: functional
MOLM-13 [6] = assay: Induction of apoptosis in human MOLM-13 cells assessed as early apoptotic cells at 3 uM measured after 48 hrs by annexin-V and PI staining based flow cytometry analysis (reference value: 8.92%); assay type: functional
[7] = Clearance in Sprague-Dawley rat at 5 mg/kg, iv measured upto 48 hrs by LC-MS/MS analysis; assay type: ADME, organism-based; settings: in vivo
[8] = Antiproliferative activity against human PBMC cells assessed as inhibition of cell growth measured after 72 hrs by Celltiter-glo luminescent cell viability assay; assay type: toxicity, cell-based
MOLM-13 [9] = assay: Induction of apoptosis in human MOLM-13 cells assessed as necrotic cells at 0.3 uM measured after 48 hrs by annexin-V and PI staining based flow cytometry analysis (reference value: 0.087%); assay type: functional
[10] = target: Receptor-type tyrosine-protein kinase FLT3 (Homo sapiens, UniProt P36888, ITD); assay: Inhibition of FLT3 ITD mutant (unknown origin) preincubated for 10 mins followed by addition of peptide solution by caliper mobility shift assay
[11] = target: T1, Vascular endothelial growth factor receptor 1; assay: Inhibition of human FLT assessed as residual activity at 1 uM by Eurofins kinase assay relative to control
[12] = target: High affinity nerve growth factor receptor (Homo sapiens) (UniProt P04629); assay: Inhibition of human TrkA at 1 uM by Eurofins kinase assay
THP-1 = assay: Antiproliferative activity against human THP-1 cells harbouring wild type FLT3 assessed as inhibition of cell growth measured after 72 hrs by Celltiter-glo luminescent cell viability assay; assay type: functional, cell-based; settings: THP-1, 72 h
[13] = target: Serine/threonine-protein kinase Nek2 (Homo sapiens) (UniProt P51955); assay: Inhibition of human NEK2 at 1 uM by Eurofins kinase assay
[14] = target: T2, Vascular endothelial growth factor receptor 2 (Homo sapiens, UniProt P35968); assay: Inhibition of VEGFR2 (unknown origin) preincubated for 10 mins followed by addition of peptide solution by caliper mobility shift assay
[15] = Antiproliferative activity against mouse Ba/F3 FLT3-ITD cells assessed as inhibition of cell growth measured after 72 hrs by Celltiter-glo luminescent cell viability assay; assay type: functional, cell-based
MOLM-13 [16] = assay: Induction of apoptosis in human MOLM-13 cells assessed as viable cells at 1 uM measured after 48 hrs by annexin-V and PI staining based flow cytometry analysis (reference value: 88.7%); assay type: functional; settings: read-out: Activity
[17] = target: Fibroblast growth factor receptor 2 (Homo sapiens) (UniProt P21802); assay: Inhibition of human FGFR2 at 1 uM by Eurofins kinase assay
OE33 = assay: Antiproliferative activity against human OE33 cells assessed as inhibition of cell growth measured after 72 hrs by Celltiter-glo luminescent cell viability assay; assay type: functional, cell-based; settings: OE33, 72 h
[18] = target: T2, Vascular endothelial growth factor receptor 2; assay: Inhibition of human KDR at 1 uM by Eurofins kinase assay
[19] = Half life in Sprague-Dawley rat at 20 mg/kg, po measured upto 48 hrs by LC-MS/MS analysis; assay type: ADME, organism-based; settings: in vivo
MOLM-13 [20] = assay: Inhibition of STAT5 phosphorylation in human MOLM-13 cells incubated for 2 hrs by Western blot analysis; assay type: cell-based; settings: dose 0.04-5 µM
[21] = system: Receptor-type tyrosine-protein kinase FLT3 (Homo sapiens), P36888 [UNDEFINED MUTATION]; assay: Inhibition of human FLT3-ITD at 1 uM by Eurofins kinase assay
[22] = target: Mitogen-activated protein kinase kinase kinase 1 (Homo sapiens) (UniProt Q13233); assay: Inhibition of human MEKK1 at 1 uM by Eurofins kinase assay
Homo sapiens [23] = organism: Homo sapiens; assay: Inhibition of human DNA-PK at 1 uM by Eurofins kinase assay
[24] = system: Mast/stem cell growth factor receptor Kit (Homo sapiens), P10721 [V654A]; assay: Inhibition of human c-kit V654A mutant at 1 uM by Eurofins kinase assay
MOLM-13 [25] = assay: Effect on STAT5 level in human MOLM-13 cells at 0.04 to 5 nM measured after 2 hrs by Western blot analysis; assay type: functional, cell-based; settings: dose 0.04-5 nM
[26] = AUC (0 to infinity) in Sprague-Dawley rat at 5 mg/kg, iv measured upto 48 hrs by LC-MS/MS analysis; assay type: ADME, organism-based; settings: in vivo
[27] = Toxicity in female NSG mouse assessed as effect on lung at 20 to 40 mg/kg, po measured after 21 days by H and E staining based analysis; assay type: organism-based; settings: in vivo, 504 h, dose 20-40 mg/kg, time 21 day
MOLM-14 = assay: Antiproliferative activity against human MOLM-14 cells harbouring FLT3-ITD assessed as inhibition of cell growth measured after 72 hrs by Celltiter-glo luminescent cell viability assay; assay type: functional, cell-based; settings: MOLM-14, 72 h
Homo sapiens [28] = organism: Homo sapiens; assay: Inhibition of human Rct at 1 uM by Eurofins kinase assay
MOLM-13 [29] = assay: Induction of apoptosis in human MOLM-13 cells assessed as early apoptotic cells at 1 uM measured after 48 hrs by annexin-V and PI staining based flow cytometry analysis (reference value: 8.92%); assay type: functional
MOLM-13 [30] = assay: Induction of cell cycle arrest in human MOLM-13 cells assessed as accumulation of cells at G2 phase at 0.3 uM measured after 48 hrs by PI staining based flow cytometry analysis (reference value: 12.5%); assay type: functional
[31] = target: Receptor-type tyrosine-protein kinase FLT3 (Homo sapiens) (UniProt P36888); assay: Inhibition of FLT3 phosphorylation in human MOLM-13 cells incubated for 2 hrs by Western blot analysis; assay type: cell-based; settings: dose 0.04-5 µM
[32] = target: Vascular endothelial growth factor receptor 3 (Homo sapiens, UniProt P35916); assay: Inhibition of FLT4 (unknown origin) preincubated for 10 mins followed by addition of peptide solution by caliper mobility shift assay
[33] = Tmax in Sprague-Dawley rat at 20 mg/kg, po measured upto 48 hrs by LC-MS/MS analysis; assay type: ADME, organism-based; settings: in vivo
Jurkat = assay: Antiproliferative activity against human Jurkat cells assessed as inhibition of cell growth measured after 72 hrs by Celltiter-glo luminescent cell viability assay; assay type: functional, cell-based
[34] = target: Aurora kinase B (Homo sapiens) (UniProt Q96GD4); assay: Inhibition of human AuroraB at 1 uM by Eurofins kinase assay
MOLM-13 [35] = assay: Induction of cell cycle arrest in human MOLM-13 cells assessed as accumulation of cells at G1 phase at 3 uM measured after 48 hrs by PI staining based flow cytometry analysis (reference value: 42.8%); assay type: functional

T2 sequence (P35968 whole entry): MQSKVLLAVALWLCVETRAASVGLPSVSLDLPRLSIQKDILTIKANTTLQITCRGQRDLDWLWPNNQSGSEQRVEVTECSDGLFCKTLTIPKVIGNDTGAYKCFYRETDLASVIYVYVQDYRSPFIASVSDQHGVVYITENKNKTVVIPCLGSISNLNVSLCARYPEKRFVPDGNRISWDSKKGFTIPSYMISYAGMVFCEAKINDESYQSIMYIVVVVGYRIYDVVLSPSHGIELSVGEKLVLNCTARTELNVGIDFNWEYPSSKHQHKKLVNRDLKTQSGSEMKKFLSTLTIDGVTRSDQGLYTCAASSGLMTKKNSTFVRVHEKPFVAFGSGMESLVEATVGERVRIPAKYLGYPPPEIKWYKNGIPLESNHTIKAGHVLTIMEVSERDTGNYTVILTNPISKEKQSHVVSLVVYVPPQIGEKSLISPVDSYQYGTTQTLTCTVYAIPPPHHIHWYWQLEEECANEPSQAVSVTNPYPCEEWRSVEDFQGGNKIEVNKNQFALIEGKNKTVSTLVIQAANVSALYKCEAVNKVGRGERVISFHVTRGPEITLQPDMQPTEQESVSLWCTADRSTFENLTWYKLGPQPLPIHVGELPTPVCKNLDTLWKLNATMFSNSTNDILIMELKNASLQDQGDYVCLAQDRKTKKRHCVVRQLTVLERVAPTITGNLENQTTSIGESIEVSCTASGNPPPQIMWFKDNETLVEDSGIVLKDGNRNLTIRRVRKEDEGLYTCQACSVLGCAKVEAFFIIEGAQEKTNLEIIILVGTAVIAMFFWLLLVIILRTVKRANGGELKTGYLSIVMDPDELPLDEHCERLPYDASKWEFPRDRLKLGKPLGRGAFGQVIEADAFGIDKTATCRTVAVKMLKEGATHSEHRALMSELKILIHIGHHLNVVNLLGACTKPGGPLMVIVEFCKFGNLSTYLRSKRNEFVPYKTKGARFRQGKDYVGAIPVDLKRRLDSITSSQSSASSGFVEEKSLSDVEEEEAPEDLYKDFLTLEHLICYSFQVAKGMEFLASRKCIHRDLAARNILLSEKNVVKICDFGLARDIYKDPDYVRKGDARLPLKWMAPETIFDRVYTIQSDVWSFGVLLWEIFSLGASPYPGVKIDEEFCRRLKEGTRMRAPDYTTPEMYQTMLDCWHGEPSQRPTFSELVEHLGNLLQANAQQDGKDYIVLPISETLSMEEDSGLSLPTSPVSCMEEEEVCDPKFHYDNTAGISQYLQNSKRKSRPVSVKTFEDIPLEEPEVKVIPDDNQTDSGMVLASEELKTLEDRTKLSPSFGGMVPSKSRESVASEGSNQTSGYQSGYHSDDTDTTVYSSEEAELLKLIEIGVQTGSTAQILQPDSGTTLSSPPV
T1 sequence (P17948 whole entry): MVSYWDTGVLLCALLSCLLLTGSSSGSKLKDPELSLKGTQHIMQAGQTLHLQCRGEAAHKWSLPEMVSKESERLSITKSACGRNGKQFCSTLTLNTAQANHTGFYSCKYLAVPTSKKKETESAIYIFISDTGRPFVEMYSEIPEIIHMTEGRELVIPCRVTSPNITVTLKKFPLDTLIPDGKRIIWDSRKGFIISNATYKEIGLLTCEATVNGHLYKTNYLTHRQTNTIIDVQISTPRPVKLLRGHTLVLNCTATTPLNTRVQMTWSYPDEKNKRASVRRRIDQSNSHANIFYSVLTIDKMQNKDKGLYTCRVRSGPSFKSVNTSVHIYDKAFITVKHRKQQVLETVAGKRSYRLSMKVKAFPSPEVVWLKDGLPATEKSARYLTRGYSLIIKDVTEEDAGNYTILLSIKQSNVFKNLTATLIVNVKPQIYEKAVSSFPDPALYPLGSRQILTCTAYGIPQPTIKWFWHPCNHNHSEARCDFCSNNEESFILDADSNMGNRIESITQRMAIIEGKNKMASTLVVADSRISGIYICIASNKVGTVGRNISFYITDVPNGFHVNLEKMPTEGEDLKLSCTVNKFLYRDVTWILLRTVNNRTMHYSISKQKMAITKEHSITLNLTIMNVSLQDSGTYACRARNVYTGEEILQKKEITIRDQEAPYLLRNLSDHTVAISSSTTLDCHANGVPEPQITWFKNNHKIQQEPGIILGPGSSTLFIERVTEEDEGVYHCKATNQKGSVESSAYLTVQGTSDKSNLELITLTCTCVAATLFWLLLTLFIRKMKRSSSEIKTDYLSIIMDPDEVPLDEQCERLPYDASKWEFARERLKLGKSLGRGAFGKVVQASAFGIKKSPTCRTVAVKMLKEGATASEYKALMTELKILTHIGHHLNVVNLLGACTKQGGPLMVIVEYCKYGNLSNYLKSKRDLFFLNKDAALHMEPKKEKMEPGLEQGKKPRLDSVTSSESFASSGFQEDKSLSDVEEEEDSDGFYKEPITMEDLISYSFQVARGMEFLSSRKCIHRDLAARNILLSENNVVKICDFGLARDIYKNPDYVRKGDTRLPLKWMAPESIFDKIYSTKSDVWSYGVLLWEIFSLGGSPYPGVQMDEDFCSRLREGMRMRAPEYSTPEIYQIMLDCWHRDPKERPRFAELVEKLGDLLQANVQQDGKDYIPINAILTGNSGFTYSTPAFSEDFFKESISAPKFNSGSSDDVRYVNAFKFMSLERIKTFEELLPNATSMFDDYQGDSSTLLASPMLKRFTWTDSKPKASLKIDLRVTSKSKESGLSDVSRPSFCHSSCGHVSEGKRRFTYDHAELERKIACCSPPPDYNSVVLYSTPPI
Mast/stem cell growth factor receptor Kit (Homo sapiens), P10721 [V654A], sequence (P10721 whole entry V654A): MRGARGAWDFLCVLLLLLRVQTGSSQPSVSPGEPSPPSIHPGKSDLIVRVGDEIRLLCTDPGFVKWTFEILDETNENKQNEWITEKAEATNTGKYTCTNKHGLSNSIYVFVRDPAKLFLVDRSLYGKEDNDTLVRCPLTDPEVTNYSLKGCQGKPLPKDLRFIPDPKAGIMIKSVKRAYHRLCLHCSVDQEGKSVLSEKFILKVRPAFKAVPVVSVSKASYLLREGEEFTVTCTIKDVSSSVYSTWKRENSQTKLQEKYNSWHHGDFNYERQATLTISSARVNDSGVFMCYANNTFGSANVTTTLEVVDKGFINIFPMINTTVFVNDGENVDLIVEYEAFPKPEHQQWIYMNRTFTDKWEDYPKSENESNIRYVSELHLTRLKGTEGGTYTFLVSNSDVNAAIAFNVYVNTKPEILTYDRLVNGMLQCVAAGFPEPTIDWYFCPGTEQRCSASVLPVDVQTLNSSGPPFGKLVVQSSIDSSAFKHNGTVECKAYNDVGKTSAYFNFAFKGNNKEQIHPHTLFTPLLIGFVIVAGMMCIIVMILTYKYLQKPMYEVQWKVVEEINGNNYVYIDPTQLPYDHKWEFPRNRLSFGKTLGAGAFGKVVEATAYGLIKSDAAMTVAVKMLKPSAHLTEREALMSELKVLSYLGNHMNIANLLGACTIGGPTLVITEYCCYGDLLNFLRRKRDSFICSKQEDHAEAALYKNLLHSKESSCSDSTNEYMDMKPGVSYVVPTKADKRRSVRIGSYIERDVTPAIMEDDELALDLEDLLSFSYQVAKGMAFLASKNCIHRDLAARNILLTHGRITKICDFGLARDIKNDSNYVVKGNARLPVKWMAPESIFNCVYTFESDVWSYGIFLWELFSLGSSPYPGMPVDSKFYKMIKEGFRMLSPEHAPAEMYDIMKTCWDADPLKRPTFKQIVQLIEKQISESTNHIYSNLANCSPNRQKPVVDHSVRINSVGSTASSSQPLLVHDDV
Aurora kinase B (Homo sapiens), sequence (Q96GD4 whole entry): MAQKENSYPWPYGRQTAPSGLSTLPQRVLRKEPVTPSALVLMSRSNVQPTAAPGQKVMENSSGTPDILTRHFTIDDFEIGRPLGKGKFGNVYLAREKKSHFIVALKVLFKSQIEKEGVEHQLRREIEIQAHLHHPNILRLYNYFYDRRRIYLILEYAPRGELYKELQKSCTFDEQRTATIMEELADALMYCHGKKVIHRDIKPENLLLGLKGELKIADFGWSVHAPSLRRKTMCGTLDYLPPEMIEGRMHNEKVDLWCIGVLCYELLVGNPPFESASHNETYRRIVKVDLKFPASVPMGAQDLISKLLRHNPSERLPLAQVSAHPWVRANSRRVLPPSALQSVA
Fibroblast growth factor receptor 2 (Homo sapiens), sequence (P21802 22-821 limits assumed): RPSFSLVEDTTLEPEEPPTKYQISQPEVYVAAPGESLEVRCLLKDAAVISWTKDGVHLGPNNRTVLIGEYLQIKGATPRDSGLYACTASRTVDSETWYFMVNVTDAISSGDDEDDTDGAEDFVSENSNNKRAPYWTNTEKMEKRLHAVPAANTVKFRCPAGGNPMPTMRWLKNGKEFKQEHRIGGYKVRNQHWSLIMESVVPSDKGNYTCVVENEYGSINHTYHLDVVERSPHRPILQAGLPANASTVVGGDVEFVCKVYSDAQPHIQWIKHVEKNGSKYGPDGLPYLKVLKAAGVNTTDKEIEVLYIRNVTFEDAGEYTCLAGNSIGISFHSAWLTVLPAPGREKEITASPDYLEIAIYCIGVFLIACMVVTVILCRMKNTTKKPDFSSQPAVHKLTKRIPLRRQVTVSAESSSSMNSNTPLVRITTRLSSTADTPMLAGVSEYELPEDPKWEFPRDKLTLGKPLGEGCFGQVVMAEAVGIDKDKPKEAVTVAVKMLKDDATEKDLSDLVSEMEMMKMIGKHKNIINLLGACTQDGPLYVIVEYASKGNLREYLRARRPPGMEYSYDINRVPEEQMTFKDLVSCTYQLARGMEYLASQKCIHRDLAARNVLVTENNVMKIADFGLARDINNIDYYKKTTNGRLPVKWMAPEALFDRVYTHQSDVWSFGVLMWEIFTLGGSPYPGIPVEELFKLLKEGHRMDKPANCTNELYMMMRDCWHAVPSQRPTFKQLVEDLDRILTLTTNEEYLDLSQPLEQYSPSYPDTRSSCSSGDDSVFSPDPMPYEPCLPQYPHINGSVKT

In the case of `O=C(Nc1ccc(Oc2ccnc(NC(=O)N3CC(O)C3)c2)c(F)c1)c1cn(-c2cccnc2)nn1`, the inhibition (Homo sapiens [1]) is reported as “inactive”, the Vd [2] is reported as 0.301 L/kg and the IC50 [3] is reported as 588 nM. The inhibition [4] was “inactive”, the Activity (MOLM-13 [5]) was 87.7% and the Activity (MOLM-13 [6]) was 38.4%. The clearance [7] was 1.41 mL/min/kg, the IC50 at 72 h [8] was > 30000 nM and the Activity (MOLM-13 [9]) was 0.063%. For the same compound, the IC50 [10] was 69 nM, the Activity [11] was 22% and the inhibition [12] was “inactive”. For the same compound, the IC50 (THP-1) was 10800 nM, the inhibition [13] was “inactive” and the IC50 [14] was 112 nM. For the same compound, the IC50 [15] was 85 nM, the viability at 1 µM (MOLM-13 [16]) was 56.7% and the inhibition [17] was “inactive”. For the same compound, the IC50 (OE33) was > 30000 nM, the inhibition [18] was “inactive” and the half-life [19] was 3.57 h. The inhibition (MOLM-13 [20]) was “Dose-dependent-effect”, the inhibition [21] was “inactive” and the inhibition [22] was “inactive”. For the same compound, the inhibition (Homo sapiens [23]) was “inactive”, the inhibition [24] was “inactive” and the Activity (MOLM-13 [25]) was “Not active; Compound Barely Affect Stat5 Level”. For the same compound, the AUC(0-inf) [26] was 59400 ng·h/mL, the Activity [27] was “Non-toxic” and the IC50 (MOLM-14) was 220 nM. The inhibition (Homo sapiens [28]) was “inactive”, the Activity (MOLM-13 [29]) was 33.6% and the Activity (MOLM-13 [30]) was 4.21%. The inhibition [31] was “Dose-dependent-effect”, the IC50 [32] was 475 nM and the Tmax [33] was 1.83 h. The IC50 (Jurkat) was > 30000 nM, the inhibition [34] was “inactive” and the Activity (MOLM-13 [35]) was 89.9%.
